Experimental data: ChEMBL document CHEMBL1221332, “[3-azabicyclo[3.1.0]hex-1-yl]phenyl-benzenesulfonamides as selective dopamine D3 antagonists” (Bioorg Med Chem Lett, 2010)

Experiments:
[1] = molecular target: D(3) dopamine receptor (Homo sapiens, UniProt P35462); experiment: Antagonist activity at dopamine D3 receptor by GTPgammaS binding assay; type: functional
[2] = molecular target: D(2) dopamine receptor (Homo sapiens, UniProt P14416)
Description: Antagonist activity at dopamine D2 receptor by GTPgammaS binding assay

[3] = molecular target: Voltage-gated inwardly rectifying potassium channel KCNH2 (Homo sapiens, UniProt Q12809)
[4] = Ratio of drug level in brain to plasma in rat; type: ADME

D(2) dopamine receptor, sequence (P14416 whole entry): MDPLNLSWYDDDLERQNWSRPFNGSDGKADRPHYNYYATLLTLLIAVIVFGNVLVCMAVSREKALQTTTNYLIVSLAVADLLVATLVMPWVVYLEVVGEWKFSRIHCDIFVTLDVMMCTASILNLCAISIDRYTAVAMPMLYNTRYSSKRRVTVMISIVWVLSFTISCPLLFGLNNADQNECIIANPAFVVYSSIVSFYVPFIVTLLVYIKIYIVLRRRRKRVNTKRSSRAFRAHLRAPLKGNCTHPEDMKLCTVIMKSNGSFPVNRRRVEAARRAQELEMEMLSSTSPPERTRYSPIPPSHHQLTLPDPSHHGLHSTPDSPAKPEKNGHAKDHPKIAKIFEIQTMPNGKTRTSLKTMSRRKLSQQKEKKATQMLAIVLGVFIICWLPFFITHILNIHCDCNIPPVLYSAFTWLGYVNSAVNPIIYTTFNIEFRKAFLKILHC
Voltage-gated inwardly rectifying potassium channel KCNH2, sequence (Q12809 whole entry): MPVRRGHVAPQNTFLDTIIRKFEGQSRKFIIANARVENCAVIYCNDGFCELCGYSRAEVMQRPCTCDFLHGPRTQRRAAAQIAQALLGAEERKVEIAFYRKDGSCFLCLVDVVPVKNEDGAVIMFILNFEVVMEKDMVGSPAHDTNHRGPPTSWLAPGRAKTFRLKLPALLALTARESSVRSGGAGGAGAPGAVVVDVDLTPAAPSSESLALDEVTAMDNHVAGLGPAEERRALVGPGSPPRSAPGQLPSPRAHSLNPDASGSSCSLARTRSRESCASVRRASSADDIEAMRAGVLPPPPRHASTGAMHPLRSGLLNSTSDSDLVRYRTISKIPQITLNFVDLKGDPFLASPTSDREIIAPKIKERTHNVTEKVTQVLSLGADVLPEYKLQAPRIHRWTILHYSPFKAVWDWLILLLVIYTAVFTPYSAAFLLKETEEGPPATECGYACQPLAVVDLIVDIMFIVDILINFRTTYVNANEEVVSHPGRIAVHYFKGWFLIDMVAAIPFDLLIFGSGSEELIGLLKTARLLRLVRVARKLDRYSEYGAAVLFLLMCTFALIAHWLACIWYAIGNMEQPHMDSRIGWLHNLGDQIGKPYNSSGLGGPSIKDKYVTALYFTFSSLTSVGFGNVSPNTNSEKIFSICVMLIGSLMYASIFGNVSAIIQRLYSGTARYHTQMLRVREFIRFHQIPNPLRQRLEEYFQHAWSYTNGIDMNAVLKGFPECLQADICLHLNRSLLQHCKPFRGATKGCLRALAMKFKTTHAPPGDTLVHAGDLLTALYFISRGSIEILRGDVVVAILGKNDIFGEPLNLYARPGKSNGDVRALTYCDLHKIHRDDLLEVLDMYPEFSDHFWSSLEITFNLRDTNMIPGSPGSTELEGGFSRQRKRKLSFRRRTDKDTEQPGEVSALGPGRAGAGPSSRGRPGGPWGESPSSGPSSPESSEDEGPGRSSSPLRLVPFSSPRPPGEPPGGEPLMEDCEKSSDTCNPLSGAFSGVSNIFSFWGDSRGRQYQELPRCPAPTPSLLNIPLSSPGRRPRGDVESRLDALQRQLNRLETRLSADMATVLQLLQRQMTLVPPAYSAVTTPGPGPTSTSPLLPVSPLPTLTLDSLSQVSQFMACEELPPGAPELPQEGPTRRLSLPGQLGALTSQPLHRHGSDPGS
D(3) dopamine receptor, sequence (P35462 whole entry): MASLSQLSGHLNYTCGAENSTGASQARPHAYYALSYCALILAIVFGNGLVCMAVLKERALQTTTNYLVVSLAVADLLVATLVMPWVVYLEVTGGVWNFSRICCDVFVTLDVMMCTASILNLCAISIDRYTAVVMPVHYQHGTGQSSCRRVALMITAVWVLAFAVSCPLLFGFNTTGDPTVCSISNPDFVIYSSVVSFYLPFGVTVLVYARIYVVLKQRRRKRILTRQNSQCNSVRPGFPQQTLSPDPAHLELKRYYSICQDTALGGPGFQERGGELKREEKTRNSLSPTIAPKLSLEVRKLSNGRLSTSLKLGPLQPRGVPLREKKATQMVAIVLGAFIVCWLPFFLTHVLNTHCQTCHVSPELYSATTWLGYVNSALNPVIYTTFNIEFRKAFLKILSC

CC(C)c1ccc(S(=O)(=O)Cc2ccc([C@]34CNC[C@H]3C4)cc2)cc1
Ki [1]: 25.1 nM | Ki [2]: 316 nM | IC50 [3]: 1260 nM

CN(c1ccc([C@]23CNC[C@H]2C3)cc1)S(=O)(=O)c1ccccc1
Ki [1]: 79.4 nM | Ki [2]: 501 nM | IC50 [3]: > 63100 nM

CC(C)c1ccc(CS(=O)(=O)c2ccc([C@]34CNC[C@H]3C4)cc2)cc1
Ki [1]: 25.1 nM | Ki [2]: > 3160 nM | IC50 [3]: 3160 nM

CCCCc1ccc(S(=O)(=O)Nc2ccc([C@]34CNC[C@H]3C4)cc2)cc1
Ki [1]: 5.01 nM | Ki [2]: 126 nM

CCC(C)(C)c1ccc(S(=O)(=O)Nc2ccc([C@]34CNC[C@H]3C4)cc2)cc1
Ki [1]: 6.31 nM | Ki [2]: 50.1 nM

CC(C)c1ccc(S(=O)(=O)Nc2ccc([C@@]34C[C@@H]3CN(C)C4)cc2)cc1
Ki [1]: 6.31 nM | Kp [4]: 7.3 | Ki [2]: 63.1 nM | IC50 [3]: 1580 nM

CCN1C[C@H]2C[C@@]2(c2ccc(NS(=O)(=O)c3ccc(C(C)C)cc3)cc2)C1
Ki [1]: 7.94 nM | Ki [2]: 100 nM | IC50 [3]: 1260 nM

C=CCN1C[C@H]2C[C@@]2(c2ccc(NS(=O)(=O)c3ccc(C(C)C)cc3)cc2)C1
Ki [1]: 2.51 nM | Ki [2]: 63.1 nM | IC50 [3]: 100 nM

COc1cc([C@]23CNC[C@H]2C3)ccc1NS(=O)(=O)c1ccc(C(C)C)cc1
Ki [2]: 50.1 nM

O=S(=O)(Nc1ccc([C@]23CNC[C@H]2C3)cc1)c1ccc(C(F)(F)F)cc1
Ki [1]: 251 nM | Ki [2]: > 3160 nM | IC50 [3]: 794 nM

O=S(=O)(Nc1ccc([C@]23CNC[C@H]2C3)cc1)c1ccc(OC(F)(F)F)cc1
Ki [1]: 631 nM | Ki [2]: 1000 nM | IC50 [3]: 10000 nM

CC(C)c1ccc(S(=O)(=O)Nc2ccc([C@]34CNC[C@H]3C4)cc2)cc1 (racemic)
Ki [1]: 2.51 nM | IC50 [3]: 1000 nM

CC(C)c1ccc(S(=O)(=O)Nc2ccc(C34CNCC3C4)cc2)cc1 (single isomer, unassigned; enantiomer 1)
Ki [1]: 3.98 nM | IC50 [3]: 5010 nM

CC(C)c1ccc(S(=O)(=O)Nc2ccc(C34CNCC3C4)cc2)cc1 (single isomer, unassigned; enantiomer 2)
Ki [1]: 200 nM | IC50 [3]: 1580 nM
